Assay: Octanol-water partition coefficient, log P of the compound
Format: physicochemical

Structure (SMILES) | logP
Cc1nc2ccc(F)cc2c2c1C(=O)NC2=O | 2.05
COC(=O)CN1C(=O)c2c(C)nc3ccc(S(=O)(=O)N4CCOCC4)cc3c2C1=O | 0.404
COC(=O)CCN1C(=O)c2c(C)nc3ccc(Br)cc3c2C1=O | 2.71
Cc1ccccc1N1C(=O)c2c(C)nc3ccc(Br)cc3c2C1=O | 5.33
Cc1ccccc1N1C(=O)c2c(C)nc3ccccc3c2C1=O | 4.54
COC(=O)CCN1C(=O)c2c(C)nc3ccc(S(=O)(=O)N4CCOCC4)cc3c2C1=O | 0.585
Cc1nc2ccc(Br)cc2c2c1C(=O)NC2=O | 2.71
COC(=O)CN1C(=O)c2c(C)nc3ccccc3c2C1=O | 1.73
COC(=O)CN1C(=O)c2c(C)nc3ccc(F)cc3c2C1=O | 1.87
Cc1nc2ccc(S(=O)(=O)N3CCOCC3)cc2c2c1C(=O)NC2=O | 0.584
COC(=O)CN1C(=O)c2c(C)nc3ccc(Br)cc3c2C1=O | 2.53
COC(=O)CCN1C(=O)c2c(C)nc3ccccc3c2C1=O | 1.92
Cc1nc2ccc(Br)cc2c2c1C(=O)N(C)C2=O | 2.95
Cc1nc2ccc(S(=O)(=O)N3CCOCC3)cc2c2c1C(=O)N(C)C2=O | 0.83
COC(=O)CCN1C(=O)c2c(C)nc3ccc(F)cc3c2C1=O | 2.06

Results, then the compound that gave them:

logP | Structure (SMILES)
1.96 | Cc1nc2ccc(S(=O)(=O)NCCO)cc2c2c1C(=O)N(c1c(C)nn(C)c1C)C2=O
3.68 | Cc1nc2ccc(C#N)cc2c2c1C(=O)N(c1c(C)nn(C)c1C)C2=O
2.16 | Cc1nc2ccc(S(N)(=O)=O)cc2c2c1C(=O)N(c1c(C)nn(C)c1C)C2=O
4.67 | Cc1nc2ccc(S(=O)(=O)N3CCCC3COc3ccccc3)cc2c2c1C(=O)N(c1c(C)nn(C)c1C)C2=O (centres undefined)
3.21 | Cc1ccccc1N1C(=O)c2c(C)nc3ccc(S(=O)(=O)N4CCOCC4)cc3c2C1=O
4.43 | Cc1nc2ccc(Br)cc2c2c1C(=O)N(c1c(C)nn(C)c1C)C2=O
2.31 | Cc1nc2ccc(S(=O)(=O)N3CCOCC3)cc2c2c1C(=O)N(c1c(C)nn(C)c1C)C2=O
4.2 | COC(=O)C(Cc1ccccc1)NS(=O)(=O)c1ccc2nc(C)c3c(c2c1)C(=O)N(c1c(C)nn(C)c1C)C3=O (centres undefined)
2.24 | COCCNS(=O)(=O)c1ccc2nc(C)c3c(c2c1)C(=O)N(c1c(C)nn(C)c1C)C3=O

Source: ChEMBL document CHEMBL3046722, “QSAR study of 1,3dioxo-4-methyl-2,3-dihydro-1h-pyrrolo[3,4-c]quinolines as caspase-3 inhibitors” (Med Chem Res, 2008)
